# Source: patent US6720324B2, “Selective melanin concentrating hormone-1 (MCH1) receptor antagonists and uses thereof” (Synaptic Pharmaceutical Corporation, priority 2000, dated 2004)
# Like-named read-outs stand apart in the source and are kept apart here.
# Experiments:
# human GALR1 = target: T1, human GALR1 (Homo sapiens, UniProt P47211); test: Radioligand binding assay, cloned receptor; details: read-out: hGALR1 Ki
# T1 construct: expressed in transfected cells
# T1 sequence (P47211 1-349): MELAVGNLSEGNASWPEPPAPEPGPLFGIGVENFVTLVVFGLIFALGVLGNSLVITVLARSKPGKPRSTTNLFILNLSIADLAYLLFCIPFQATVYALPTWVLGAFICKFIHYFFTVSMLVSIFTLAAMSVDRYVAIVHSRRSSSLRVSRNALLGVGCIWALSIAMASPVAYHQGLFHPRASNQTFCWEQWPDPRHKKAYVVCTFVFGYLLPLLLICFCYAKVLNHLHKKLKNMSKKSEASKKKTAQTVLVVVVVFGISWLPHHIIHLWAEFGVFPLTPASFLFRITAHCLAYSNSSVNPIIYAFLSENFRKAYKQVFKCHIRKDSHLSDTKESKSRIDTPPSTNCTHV
# Method: (§1) For binding assays, pellets of transfected cells are suspended in ice-cold buffer (20 mM Tris.HCl, 5 mM EDTA, pH 7.4) and homogenized by sonication for 7 sec. The cell lysates are centrifuged at 200×g for 5 min at 4° C. The supernatants are then centrifuged at 40,000×g for 20 min at 4° C. The resulting pellets are washed once in the homogenization buffer and suspended in binding buffer (see methods for radioligand binding). Protein concentrations are determined by the method of Bradford (1976) using bovine serum albumin as the standard. Binding assays are usually performed immediately, however it is possible to prepare membranes in batch and store frozen in liquid nitrogen for future use.
# (§2) The methods to obtain the cDNA of the human NPY1, NPY5, GALR1, GALR2, and GALR3 and rat 5-HT2C receptors, express said receptors in heterologous systems, and carry out assays to determine binding affinity are described in the following publications and above: human NPY1 (Larhammar et al., 1992), human NPY5 (U.S. Pat. No. 5,602,024, the disclosure of which is hereby incorporated by reference in its entirety into this application), human Gal1 (Habert-Ortoli et al., 1994), human Gal2 (Smith et al., 1997), human Gal3 (Smith et al., 1998), and rat 5-HT2C (Julius et al., 1988).
# human NPY5 = target: T2, human NPY5 (Homo sapiens, UniProt Q15761); test: Radioligand binding assay, cloned receptor; details: read-out: hNPY5 Ki
# T2 construct: expressed in transfected cells
# T2 sequence (Q15761 1-445): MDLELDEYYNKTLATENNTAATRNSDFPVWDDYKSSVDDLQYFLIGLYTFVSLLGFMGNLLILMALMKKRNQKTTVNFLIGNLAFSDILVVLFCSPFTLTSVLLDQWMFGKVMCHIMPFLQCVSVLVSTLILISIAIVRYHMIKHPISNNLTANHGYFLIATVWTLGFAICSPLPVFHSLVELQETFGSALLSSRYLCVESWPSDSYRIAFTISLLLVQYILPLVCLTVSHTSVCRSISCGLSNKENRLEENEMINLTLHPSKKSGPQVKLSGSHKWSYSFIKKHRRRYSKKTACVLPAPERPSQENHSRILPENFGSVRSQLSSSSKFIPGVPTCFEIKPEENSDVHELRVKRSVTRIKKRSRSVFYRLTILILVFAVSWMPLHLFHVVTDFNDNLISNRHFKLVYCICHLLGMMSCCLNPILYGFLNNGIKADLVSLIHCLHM
# Method: as §1, §2
# human MCH1 receptor = human MCH1 receptor (Homo sapiens, UniProt Q99705); test: Radioligand competition binding with [3H]Compound 10, membranes of A293 cells; details: Table 3, A293 cell membranes, [3H]Compound 10 as radioligand, read-out: hMCH1 * Ki
# Method: as §1
# Radioligand binding assays for the MCH1 receptor were carried out using plasmid pEXJ.HR-TL231 (ATCC Accession No. 203197). Plasmid pEXJ.HR-TL231 comprises the regulatory elements necessary for expression of DNA in a mammalian cell operatively linked to DNA encoding the human MCH1 receptor so as to permit expression thereof. Plasmid pEXJ.HR-TL231 was deposited on Sep. 17, 1998, with the American Type Culture Collection (ATCC), 12301 Parklawn Drive, Rockville, Md. 20852, U.S.A. under the provisions of the Budapest Treaty for the International Recognition of the Deposit of Microorganisms for the Purposes of Patent Procedure and was accorded ATCC Accession No. 203197. […]
# Sequence of human MCH1 receptor (Q99705 whole entry): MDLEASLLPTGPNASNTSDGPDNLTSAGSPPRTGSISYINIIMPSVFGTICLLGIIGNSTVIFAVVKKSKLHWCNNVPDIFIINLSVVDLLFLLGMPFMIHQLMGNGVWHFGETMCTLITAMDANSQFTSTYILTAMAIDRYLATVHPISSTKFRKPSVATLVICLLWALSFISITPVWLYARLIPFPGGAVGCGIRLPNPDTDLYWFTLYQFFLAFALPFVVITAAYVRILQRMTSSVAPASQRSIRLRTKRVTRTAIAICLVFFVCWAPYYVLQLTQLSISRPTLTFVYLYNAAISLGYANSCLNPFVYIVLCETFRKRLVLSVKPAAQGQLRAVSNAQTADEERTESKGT
substance,measurement,setting,value
"2-(3,4-DIFLUOROPHENYL)4,5-DIHYDROIMIDAZOLE-1-CARBOXYLIC ACID {3-[4-PHENYL-4-(4-BROMO-5-METHYLTHIOPNEN-2-YL)]PROPYL}-AMIDE [Example 19]",Ki,human GALR1; Table 2,> 50 µM
same,Ki,human GALR1; Table 3,> 50 µM
same,Ki,human NPY5; Table 2,> 50 µM
same,Ki,human NPY5; Table 3,> 50 µM
same,Ki,human MCH1 receptor,0.003 µM
